From article PMC10385865, “Synthesis and Anticancer Activity of Novel Dual Inhibitors of Human Protein Kinases CK2 and PIM-1” (Pharmaceutics, 2023) come the findings set out here.

Read-outs that look alike come from different tables or passages of the source.

By Ki is commonly meant the dissociation constant of the complex between target and ligand, obtained from inhibition or displacement. Broadly, the IC50 is the concentration that gives 50% inhibition.

The target in one test is T1, PIM-1 (Homo sapiens, UniProt P11309).
T1 construct: made in house
Description: P81 filter isotopic (radiometric) kinase assay, PIM-1. The class given is biochemical. Conditions: substrate peptide […], Ki from IC50 by Cheng–Prusoff. The method, then: The obtained compounds were tested for their inhibitory activity toward human CK2α, human CK2 holoenzyme, and PIM-1 using a P81 filter isotopic assay as described previously. […] The experimental data were fitted to the sigmoidal dose–response equation, i.e., (variable slope) Y = Bottom + (Top-Bottom)/(1 + 10^((LogIC50−X)∗HillSlope), in GraphPad Prism (Prism 9, v. 9.0.1).
Inhibition of the human CK2 catalytic subunit (CK2α), CK2 holoenzyme (CK2α2β2), and PIM-1 by the newly obtained compounds was evaluated using a radiometric assay (Table 1, Figure S2). The synthetic peptide […] was used as the substrate of CK2, and peptide […] was used as the substrate of PIM-1. The values of the inhibition constant (Ki) were calculated using the Cheng–Prusoff equation: Ki = IC50/(1 + [S]/Km).

Test [1] has as its system CCRF-CEM (acute lymphoblastic leukemia). Description: MTT-based viability assay, CCRF-CEM. Type of test: cell-based, human. Conditions: for IC50: Homo sapiens, CCRF-CEM, 48 h, read-out: IC50 CCRF-CEM. The method, then: (§1) After incubation with the tested compounds, an MTT test was performed as described previously. Optical densities were measured at 570 nm using a BioTek microplate reader (BioTek Instruments, Inc., Winooski, VT, USA). All measurements were carried out in a minimum of three biological replicates.
(§2) . The IC50 values describing the half-maximal effective concentration of each tested compound were calculated and are summarized in Table 2. […].
A general note: Formazan colour is commonly taken as a measure of viable cells.

Test [2] has as its system K-562 (chronic myelogenous leukemia). Description: MTT-based viability assay, K-562. Type of test: cell-based, human. The note with it: for IC50: Homo sapiens, read-out: IC50 K-562. The method, then: as §1, §2
The next test has as its system Vero cells. Description: MTT-based viability assay, non-cancerous Vero cells. Type of test: cell-based, Cercopithecus aethiops. The note with it: Chlorocebus sabaeus, 48 h, read-out: IC50 Vero. As to the method:
as §1, §2

In test [3] the test system is MCF-7 cells. Description: Cell cycle progression by flow cytometry (PI), MCF-7. Conditions: MCF-7, 48 h. The class given is cell-based, human. The method, then:
MCF-7, CCRF-CEM, and K-562 cells were cultured in 6-well plates and treated with the tested compounds for 48 h. After exposure to the compounds, the cells were collected and washed with cold PBS and fixed at −20 °C in 70% ethanol for at least 24 h. Subsequently, cells were washed in PBS and stained with 50 μg/mL PI (propidium iodide) and 100 μg/mL RNase solution in PBS supplemented with 0.1% v/v Triton X-100 for 30 min in the dark at RT. Cellular DNA content was determined by flow cytometry employing a BD FACSCanto II flow cytometer (BD Biosciences, San Jose, CA, USA). The obtained DNA histograms were analyzed using MacCycle software (Phoenix Flow Systems, San Diego, CA, USA) for evaluation of the distribution of the cells in different phases of the cell cycle.
Since CK2 controls cell cycle progression and, consequently, its inhibition can affect the distribution of cells in the individual phases of the cell cycle, we tested the cell cycle progression in CCRF-CEM, K-562, and MCF-7 cells after treatment with 4 and rac-6. Representative plots DNA histograms with the calculations of cell percentages in each phase of the cell cycle are depicted in Figure 7. […] Accumulation of cells in sub-G1 indicates DNA degradation, as often seen in apoptotic cells, confirming the results obtained with annexin V and PI staining.
In general terms: Flow cytometry measures light scatter and fluorescence of single cells or particles in a stream.

Test [4] deals with MCF-7 cells. Description: Annexin V/propidium iodide apoptosis, flow cytometry, MCF-7. The note with it: for viability at 5 µM / viability at 10 µM: Homo sapiens, MCF7, 48 h, read-out: Viable; for Early apoptosis / Late apoptosis / Necrosis: mean±SD.
Description: MCF-7 cells were seeded in 6-well plates at 1.2 × 10^5 cells/well, whereas CCRF-CEM and K-562 cells were seeded in 24-well plates at a density of 2 × 10^5/mL. Cells were treated with the tested compounds used in 5 µM and 10 µM concentrations. Then, the plates were incubated for 48 h. After exposure to the examined compounds, the cells were collected and centrifugated at 200× g at 4 °C for 5 min, washed twice in cold phosphate-buffered saline (PBS), and subsequently suspended in binding buffer at 1 × 10^6 cells/mL. Subsequently, 100-μL aliquots of the cell suspension were labeled according to the instructions of the respective manufacturer’s kit. Briefly, annexin V-fluorescein isothiocyanate and propidium iodide (BD Biosciences, Pharmingen, San Diego, CA, USA) were added to the cell suspension, and the mixture was vortexed, then incubated for 15 min at RT in the dark. A cold binding buffer (400 μL) was then added, and the cells were vortexed again and kept on ice. Flow cytometric measurements were performed within 1 h after labeling. Viable, necrotic, early, and late apoptotic cells were detected by flow cytometry using a BD FACSCanto II flow cytometer and analyzed using BD FACSDiva operating software (BD Biosciences, San Jose, CA, USA).

T1 sequence (P11309 whole entry): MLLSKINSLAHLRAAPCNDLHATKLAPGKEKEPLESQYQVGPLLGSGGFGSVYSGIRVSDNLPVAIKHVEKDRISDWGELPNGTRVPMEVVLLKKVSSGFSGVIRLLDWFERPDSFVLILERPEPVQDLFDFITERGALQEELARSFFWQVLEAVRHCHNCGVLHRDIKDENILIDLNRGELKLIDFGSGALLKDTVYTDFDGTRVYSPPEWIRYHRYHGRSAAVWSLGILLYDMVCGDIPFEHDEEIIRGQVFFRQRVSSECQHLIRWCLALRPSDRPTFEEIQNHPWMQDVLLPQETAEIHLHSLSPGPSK

`CN(C)c1nc2c(Br)c(Br)c(Br)c(Br)c2[nH]1` [Compound 4, 4,5,6,7-Tetrabromo-N,N-dimethyl-1H-benzimidazol-2-amine, reference compound] yielded a Ki at PIM-1 of 0.052 µM. Moreover, the IC50 is 18.9 ± 0.88 µM in test [1]; 22.5 ± 6.09 µM in test [2] (K562, 48 h); 18.7 ± 0.33 µM with Vero cells. In the test on MCF-7 cells [3], the “cell cycle arrest (phase, in words)” value is given as “S-phase arrest”. Also, the viability at 5 µM with MCF-7 cells [4] came out at 79 ± 2.76%. Besides, in the test on MCF-7 cells [4], the viability at 10 µM turned out to be 70.3 ± 3.36%. In addition, the Early apoptosis is on record as 0.98±0.62% in the test with MCF-7 cells [4] (MCF-7, 5 µM, 48 h) and 1.80±1.31% in the test on MCF-7 cells [4] (MCF-7, 10 µM, 48 h). For the same compound, the Late apoptosis in the test with MCF-7 cells [4] (MCF-7, 5 µM, 48 h) was 8.44±1.47%; with MCF-7 cells [4] (MCF-7, 10 µM, 48 h), 15.94±3.58%. Further, the Necrosis in the test on MCF-7 cells [4] (MCF-7, 5 µM, 48 h) came out at 11.62±2.01%; in the test with MCF-7 cells [4] (MCF-7, 10 µM, 48 h) it was 11.96±2.46%.
Turning to `OC(CNc1nc2c(Br)c(Br)c(Br)c(Br)c2[nH]1)C(F)(F)F` (racemic) [rac-6, 1,1,1-Trifluoro-3-[(4,5,6,7-tetrabromo-1H-benzimidazol-2-yl)amino]propan-2-ol], the affinity on PIM-1, expressed as Ki, was 0.067 µM. Also, the IC50 amounted to 11.8 ± 0.4 µM in test [1] (MTT); 17.7 ± 3.54 µM in test [2] (K562, MTT, 48 h); 20.4 ± 0.41 µM with Vero cells (MTT). The “SI (selectivity index) CCRF-CEM” value in test [1] (IC50 Vero/IC50 cancer cells) is given as 1.72. Further, the “SI (selectivity index) K-562” value in test [2] (IC50 Vero/IC50 cancer cells) was found to be 1.15. Also, the “cell cycle arrest (phase, in words)” value with MCF-7 cells [3] was “G1-phase arrest”. In addition, the viability at 5 µM with MCF-7 cells [4] was determined as 79 ± 1.94%. In addition, the viability at 10 µM in the test with MCF-7 cells [4] turned out to be 69.1 ± 13.1%. Moreover, the Early apoptosis with MCF-7 cells [4] (MCF-7, 5 µM, 48 h) turned out to be 1.18±1.08%; in the test on MCF-7 cells [4] (MCF-7, 10 µM, 48 h), 3.53±5.45%. For the same compound, the Late apoptosis with MCF-7 cells [4] (MCF-7, 5 µM, 48 h) is recorded as 10.96±1.63%; with MCF-7 cells [4] (MCF-7, 10 µM, 48 h) it was 19.05±7.40%. The Necrosis with MCF-7 cells [4] (MCF-7, 5 µM, 48 h) was found to be 8.94±1.14%; with MCF-7 cells [4] (MCF-7, 10 µM, 48 h), 8.28±1.69%. The “induction of apoptosis (in words)” value in the test on MCF-7 cells [4] (MCF-7, 10 µM, 48 h, statistically significant result) was “induced apoptosis”.
